Source: US12077503B2, “Substituted cyclic amides and their use as herbicides” (FMC CORPORATION, priority 2015, dated 2024)

Assays:
Type in all cases: in vivo
[1] = test system: redroot pigweed (Amaranthus retroflexus); assay: Test G Post-Emergence Protocol; settings: Amaranthus retroflexus, post-emergence, 312 h
Summary of the method: (§1)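 Pot-grown seedlings, 8 days old, raised in a glasshouse at 24/16 °C day/night with 14 h light and 65% humidity, were sprayed post-emergence with test compound in acetone/water (50:50) plus 0.5% Tween 20 at 15.625, 62.5 or 250 g/ha. Damage was scored visually 13 days later on a 0–100 scale (100 = total damage).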

[2] = test system: barnyardgrass (Echinochloa crus-galli); assay: Test G Post-Emergence Protocol; settings: Echinochloa crus-galli, post-emergence, 312 h
Summary of the method: as §1

[3] = test system: giant foxtail (Setaria faberi); assay: Test G Post-Emergence Protocol; settings: Setaria faberi, post-emergence, 312 h
Summary of the method: as §1

[4] = test system: velvetleaf (Abutilon theophrasti); assay: Test G Post-Emergence Protocol; settings: Abutilon theophrasti, post-emergence, 312 h
Summary of the method: as §1

corn (Zea mays) [5] = assay: Test G Post-Emergence Protocol; settings: Zea mays, post-emergence, 312 h
Summary of the method: as §1

[6] = test system: ivy-leaved morning glory (Ipomoea hederacea); assay: Test G Post-Emergence Protocol; settings: Ipomoea, post-emergence, 312 h
Summary of the method: as §1

[7] = test system: redroot pigweed (Amaranthus retroflexus); assay: Test G Pre-Emergence Protocol; settings: Amaranthus retroflexus, pre-emergence, 312 h, evaluated after 13 days
Summary of the method: (§2)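 Glasshouse pre-emergence test: soil-sown seeds, sprayed after 1 d at 15.625, 62.5 or 250 g/ha. Conditions 24/16° C day/night, 14 h light, 65% humidity, watering twice daily. Rating 13 d post-spray (100 = total damage).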

[8] = test system: barnyardgrass (Echinochloa crus-galli); assay: Test G Pre-Emergence Protocol; settings: Echinochloa crus-galli, pre-emergence, 312 h, evaluated after 13 days
Summary of the method: as §2

[9] = test system: giant foxtail (Setaria faberi); assay: Test G Pre-Emergence Protocol; settings: Setaria faberi, pre-emergence, 312 h, evaluated after 13 days
Summary of the method: as §2

[10] = test system: velvetleaf (Abutilon theophrasti); assay: Test G Pre-Emergence Protocol; settings: Abutilon theophrasti, pre-emergence, 312 h, evaluated after 13 days
Summary of the method: as §2

corn (Zea mays) [11] = assay: Test G Pre-Emergence Protocol; settings: Zea mays, pre-emergence, 312 h, evaluated after 13 days
Summary of the method: as §2

[12] = test system: ivy-leaved morning glory (Ipomoea hederacea); assay: Test G Pre-Emergence Protocol; settings: Ipomoea, pre-emergence, 312 h, evaluated after 13 days
Summary of the method: as §2

CN1C[C@@H](c2ccc(C(F)(F)F)cc2)[C@H](C(=O)Nc2cc(F)ncn2)C1=O (racemic) [Compound 1509]
0%: pest or weed control at 15.625 g/ha ([1]; 15.625 g ai/ha, evaluated after 13 days (100=total damage to plant; 0=no damage to plant), read-out: Pigweed, Redroot damage rating) | pest or weed control at 62.5 g/ha ([1]; 62.5 g ai/ha, evaluated after 13 days, read-out: Pigweed, Redroot damage rating (100=total damage to plant; 0=no damage to plant)) | pest or weed control at 250 g/ha ([1]; 250 g ai/ha, evaluated after 13 days, read-out: damage to plant, Pigweed, Redroot (100=total damage to plant; 0=no damage to plant)) | pest or weed control at 15.625 g/ha ([2]; 15.625 g ai/ha, evaluated after 13 days (100=total damage to plant; 0=no damage to plant), read-out: Barnyardgrass damage rating) | pest or weed control at 62.5 g/ha ([2]; 62.5 g ai/ha, evaluated after 13 days, read-out: Barnyardgrass damage rating (100=total damage to plant; 0=no damage to plant)) | pest or weed control at 250 g/ha ([2]; 250 g ai/ha, evaluated after 13 days, read-out: damage to plant, Barnyardgrass (100=total damage to plant; 0=no damage to plant)) | pest or weed control at 15.625 g/ha ([3]; 15.625 g ai/ha, evaluated after 13 days (100=total damage to plant; 0=no damage to plant), read-out: Foxtail, Giant damage rating) | pest or weed control at 62.5 g/ha ([3]; 62.5 g ai/ha, evaluated after 13 days, read-out: Foxtail, Giant damage rating (100=total damage to plant; 0=no damage to plant)) | pest or weed control at 250 g/ha ([3]; 250 g ai/ha, evaluated after 13 days, read-out: damage to plant, Foxtail, Giant (100=total damage to plant; 0=no damage to plant)) | pest or weed control at 15.625 g/ha ([4]; 15.625 g ai/ha, evaluated after 13 days (100=total damage to plant; 0=no damage to plant), read-out: Velvetleaf damage rating) | pest or weed control at 62.5 g/ha ([4]; 62.5 g ai/ha, evaluated after 13 days, read-out: Velvetleaf damage rating (100=total damage to plant; 0=no damage to plant)) | pest or weed control at 250 g/ha ([4]; 250 g ai/ha, evaluated after 13 days, read-out: damage to plant, Velvetleaf (100=total damage to plant; 0=no damage to plant)) | plant injury at 15.625 g/ha (corn (Zea mays) [5]; 15.625 g ai/ha, evaluated after 13 days (100=total damage to plant; 0=no damage to plant), read-out: Corn damage rating) | plant injury at 62.5 g/ha (corn (Zea mays) [5]; 62.5 g ai/ha, evaluated after 13 days, read-out: Corn damage rating (100=total damage to plant; 0=no damage to plant)) | plant injury at 250 g/ha (corn (Zea mays) [5]; 250 g ai/ha, evaluated after 13 days, read-out: damage to plant, Corn (100=total damage to plant; 0=no damage to plant)) | pest or weed control at 15.625 g/ha ([6]; 15.625 g ai/ha, evaluated after 13 days (100=total damage to plant; 0=no damage to plant), read-out: Morningglory, Ivy-leaved damage rating) | pest or weed control at 62.5 g/ha ([6]; 62.5 g ai/ha, evaluated after 13 days, read-out: Morningglory, Ivy-leaved damage rating (100=total damage to plant; 0=no damage to plant)) | pest or weed control at 250 g/ha ([6]; 250 g ai/ha, evaluated after 13 days, read-out: damage to plant, Morningglory, Ivy-leaved (100=total damage to plant; 0=no damage to plant)) | pest or weed control at 15.625 g/ha ([7]; 15.625 g ai/ha, read-out: Pigweed, Redroot damage rating (100=total damage to plant; 0=no damage to plant)) | pest or weed control at 62.5 g/ha ([7]; 62.5 g ai/ha, 100=total damage to plant, 0=no damage to plant, read-out: plant damage rating, Pigweed, Redroot) | pest or weed control at 250 g/ha ([7]; 250 g ai/ha, read-out: Pigweed, Redroot damage rating (100=total damage to plant; 0=no damage to plant)) | pest or weed control at 15.625 g/ha ([8]; 15.625 g ai/ha, read-out: Barnyard grass damage rating (100=total damage to plant; 0=no damage to plant)) | pest or weed control at 62.5 g/ha ([8]; 62.5 g ai/ha, 100=total damage to plant, 0=no damage to plant, read-out: plant damage rating, Barnyardgrass) | pest or weed control at 250 g/ha ([8]; 250 g ai/ha, read-out: Barnyardgrass damage rating (100=total damage to plant; 0=no damage to plant)) | pest or weed control at 15.625 g/ha ([9]; 15.625 g ai/ha, read-out: Foxtail, Giant damage rating (100=total damage to plant; 0=no damage to plant)) | pest or weed control at 62.5 g/ha ([9]; 62.5 g ai/ha, 100=total damage to plant, 0=no damage to plant, read-out: plant damage rating, Foxtail, Giant) | pest or weed control at 250 g/ha ([9]; 250 g ai/ha, read-out: Foxtail, Giant damage rating (100=total damage to plant; 0=no damage to plant)) | pest or weed control at 15.625 g/ha ([10]; 15.625 g ai/ha, read-out: Velvetleaf damage rating (100=total damage to plant; 0=no damage to plant)) | pest or weed control at 62.5 g/ha ([10]; 62.5 g ai/ha, 100=total damage to plant, 0=no damage to plant, read-out: plant damage rating, Velvetleaf) | pest or weed control at 250 g/ha ([10]; 250 g ai/ha, read-out: Velvetleaf damage rating (100=total damage to plant; 0=no damage to plant)) | plant injury at 15.625 g/ha (corn (Zea mays) [11]; 15.625 g ai/ha, read-out: Corn damage rating (100=total damage to plant; 0=no damage to plant)) | plant injury at 62.5 g/ha (corn (Zea mays) [11]; 62.5 g ai/ha, 100=total damage to plant, 0=no damage to plant, read-out: plant damage rating, Corn) | plant injury at 250 g/ha (corn (Zea mays) [11]; 250 g ai/ha, read-out: Corn damage rating (100=total damage to plant; 0=no damage to plant)) | pest or weed control at 15.625 g/ha ([12]; 15.625 g ai/ha, read-out: Morning-glory, Ivy-leaved damage rating (100=total damage to plant; 0=no damage to plant)) | pest or weed control at 62.5 g/ha ([12]; 62.5 g ai/ha, 100=total damage to plant, 0=no damage to plant, read-out: plant damage rating, Morningglory, Ivy-leaved) | pest or weed control at 250 g/ha ([12]; 250 g ai/ha, read-out: Morningglory, Ivy-leaved damage rating (100=total damage to plant; 0=no damage to plant))
